Four compounds from patent US6929935B2, “Gluconobacter oxydans 2-ketoreductase enzyme and applications thereof” (Bristol-Myers Squibb Company, priority 2001, dated 2005) can be followed below.

This assay has as its system G. oxydans 2-ketoreductase. In words: Reduction of alkylketones with extract of E. coli expressing recombinant 2-ketoreductase, analysed by gas chromatography. The class given is biochemical, Gluconobacter oxydans. Conditions: NAD+/formate/formate dehydrogenase, 28° C., 16 hr; for % Conversion: 2 mg 2-ketone, 0.5 ml E. coli pBMS2000-KR extract, ketone to 2-alcohol. On the procedure:
Analysis of enantiomeric alcohols by gas chromatography: Samples were extracted in ethyl acetate and dried over anhydrous magnesium sulfate. Samples were then applied onto a Astec Chiraldex G-TA, gamma cyclodextrin column (20 m×0.25 mm×0.125 μm thickness; Astec, Whippany, N.J.) equipped with a guard column (Hewlett-Packard Ultra II, 5% phenyl methyl silicone, 5 m×0.32 mm×0.17 μm thickness; Agilent Technologies, Palo Alto, Calif.). The temperature of the injector was set at 150° C. and the detector of the chromatograph (Hewlett-Packard 5890) was set at 200° C. Detection was carried out with a flame ionization detector (Agilent Technologies). The separation was carried out by a gradient under the following conditions: 28° C. for 15 minutes, 5° C./min to 50° C. and hold 5 minutes. The helium flow rate was maintained at 22 cm/min. Under these conditions, the retention times for S-2-pentanol, R-2-pentanol, and 2-pentanone were 10.85, 11.67 and 17.84 minutes respectively.
The reaction contained 0.18 mg NAD+, 30 mg sodium formate, 0.3 units formate dehydrogenase (Sigma, St. Louis, Mo.), 2 mg 2-pentanone, and 0.5 ml of extract from an E. coli (BL21(DE3)) culture containing the pBMS2000-KR plasmid and expressing the ketoreductase. Alternatively, P. pastoris formate dehydrogenase (see S. Goldberg et al.: U.S. Provisional Patent Application Ser. No. 60/341,934 filed Dec. 19, 2001; U.S. Provisional Application Ser. No. 60/375,530 filed Apr. 25, 2002; and U.S. patent application Ser. No. 10/320,300; the contents of which are hereby incorporated by reference in their entirety) can be substituted for the commercial formate dehydrogenase. Cell extracts were obtained as follows: 2 g recombinant cells was suspended in 10 ml Buffer A (50 mM Tris-HCl, pH 7.5, 1 mM CaCl2, and 1 mM MgCl2). The resuspended cells were sonicated for 2 min (20 sec pulse “on” and 30 sec pulse “off”) using Model 550 Sonic Dismembrator (Misonix Inc., Farmingdale, N.Y.). The resulting mixture was centrifuged for 15 min at 8000 rpm at 4° C. The supernatant was removed and used for reduction reactions. The reactions were carried out in a culture tube at 28° C. with shaking at 200 rpm. After 16 hr, samples were quenched with 2 ml of ethyl acetate and analyzed by gas chromatography (described earlier).
The reactions contained 0.18 mg NAD+, 30 mg sodium formate, 0.3 units formate dehydrogenase (purchased from Sigma), 2 mg 2-ketones, and 0.5 ml of extract from the E. coli culture containing the pBMS2000-KR plasmid and expressing the ketoreductase (described above). The reactions were carried out in a culture tube at 28° C. on a shaker at 200 rpm. The end of 16 hr, samples were quenched with 2 ml of ethyl acetate and analyzed by gas chromatography (described earlier).

For `CCCCCCC(C)=O` [2-Octanone], the “% Conversion” value is >98%.

Turning to `CCCCCC(C)=O` [2-Heptanone], the “% Conversion” value was >98%.

Consider `CCCCCCCCC(C)=O` [2-Decanone], for which the “% Conversion” value was >98%.

Regarding `CCCC(C)=O` [2-pentanone], under “2 mg substrate, 0.5 ml E. coli BL21(DE3) pBMS2000-KR extract”, the “reduction of the substrate to 2-pentanol using recombinant enzyme” value was “complete reduction”.
